Assay results reported in patent US7582678B2, “Use of branched-chain fatty acids and derivatives thereof for the treatment of pain” (D-PHARM Limited, priority 1998, dated 2009).

What was measured:
CD-1 mice = details: 150 mg/kg single dose one hour before formalin; vs non-treated animals; 10 to 35 minutes after formalin (chronic phase); p<0.05 (FIG. 2)
Method: Evaluation of pain is based on the observed behavior of the animals after the formalin injection.
Formalin stock (Frutarom Ltd., Israel; cat. # 5551830; 3.4-3.8% formaldehyde content) was diluted into 2.5% formalin solution in saline. 25 μl of the 2.5% formalin solution was injected into the plantar surface of CD-1 mice foot using a syringe with a 29G needle. The animals' reaction, apparent as licking and lifting the paw off the ground, is noticed immediately after injection. Each of the treated animals and control naive animals injected only with formalin was monitored for a period of 40 min, through 5 minutes time segments (4-6 animals in a group).
Evaluation of pain was performed by recording the time the animal spent licking its paw. A computerized program was used for timing the total number of seconds each animal spent licking its paw during the preset period of 5 min. This step was repeated for up to 40 min (8 intervals of 5 min).

Male CD-1 mice = assay: Tail flick assay (radiated heat, acute pain) in mice;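 note: infrared heat aimed at the tail of restrained mice, time until tail flick recorded as mean of 2-3 readings, 4-8 animals per group, compared with vehicle-treated animals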
Method: The analgesic effect of branched-chain fatty acids (BFAs) and their DP-BFAs derivatives was tested by using the tail flick assay in mice.
This model uses radiated infrared (IR) heat source that is directed to the tail of a restrained mouse. The threshold of tolerance for heat is indicated by a time-meter, which is stopped instantaneously when the tail flicks. This time is defined as ‘withdrawal latency’.
Male CD-1 mice weighing around 25-30 grams (4-8 animals per each dose of the tested compound) were used. The animals were put in clear plastic cages above an IR source (7371-Plantar™ Analgesia Instrument, UGO Basile), where the IR generator is placed directly underneath the tail of the mouse and the light beam is focused on the proximal third of the tail.
The withdrawal latency, namely the time interval from the starting of the infrared radiation until the animal feels pain and flicks its tail is determined. The initial withdrawal latency for each animal was measured at t=0 and was determined as its baseline threshold.
In order to determine the analgesic effect of a tested drug, the drug (10 to 200 mg/kg body weight) was administered to mice either orally (p.o.) or by intraperitoneal (i.p.) or subcutaneous (s.c.) injection. Withdrawal latency was determined at different time points post-administration of the drug as indicated. Each reading was performed 2-3 times and the mean-value was calculated. […] The withdrawal latency at each time point post injection is the average of 4-8 animals per group. […] Paired T-test was used to assess significance in comparison to the baseline value (t=0). Morphine was used as a positive control (2 animals per dose).

Sprague-Dawley (SD) rats = details: rats day 15 post-CCI operation, s.c. 150 mg/kg, vs vehicle (FIG. 3)
Method: Male, Sprague-Dawley (SD) rats, weighing around 200-250 grams, were anesthetized by i.p. injection of ketamine (50 mg/kg) and xylazine (10 mg/kg). The common sciatic nerve was exposed at the middle of the thigh of the hind right foot. Four ligatures were tied loosely around the nerve with a spacing of about 1 mm between them. The incision was closed by suturing the inner layers of the muscles with chromic gut suture, and the outer skin with silk suture. Five to seven days later the nociceptive threshold can be evaluated by quantifying sensitivity of the foot to mechanical stimuli or cold temperatures to assess allodynia.
The mechanical sensitivity of the animal foot is measured using the von Frey test [Kim and Chung (1992) Pain 50: 355-63]. An automated von Frey test was employed, in which a von Frey filament is applied to the plantar surface of the animal foot and the filament is pushed automatically at a preset rate of force/time increments into the plantar. Each measurement was repeated 2-3 times in each epsilateral and contralateral foot of the tested animals. The time lapsed from applying of pressure until withdrawal of the foot from the innocuous stimulus was measured in the treated animals and compared to the baseline values obtained for each animal prior to treatment.
As a control served CCI-operated animals injected with vehicle only.

8-Pentadecanyl phosphocholine
time the animal spent licking its paw (CD-1 mice): significant less time licking their paw
Withdrawal latency (% of vehicle) (Male CD-1 mice; I.P., 100 mg/kg, 15 min post-injection): 235% of vehicle
Withdrawal latency (% of vehicle) (Male CD-1 mice; I.P., 100 mg/kg, 45 min post-injection): 134% of vehicle
Withdrawal latency (% of vehicle) (Male CD-1 mice; I.P., 100 mg/kg, 75 min post-injection): 177% of vehicle
Withdrawal latency (% of vehicle) (Male CD-1 mice; I.P., 100 mg/kg, 105 min post-injection): 134% of vehicle
Withdrawal latency (% of vehicle) (Male CD-1 mice; I.P., 100 mg/kg, 135 min post-injection): 141% of vehicle
Withdrawal latency (% of vehicle) (Male CD-1 mice; I.P., 100 mg/kg, 285 min post-injection): 145% of vehicle
Withdrawal latency (% of vehicle) (Male CD-1 mice; P.O., 50 mg/kg, 45 min post-administration): 149% of vehicle
Withdrawal latency (% of vehicle) (Male CD-1 mice; P.O., 50 mg/kg, 75 min post-administration): 157% of vehicle
Withdrawal latency (% of vehicle) (Male CD-1 mice; P.O., 50 mg/kg, 105 min post-administration): 145% of vehicle
Withdrawal latency (% of vehicle) (Male CD-1 mice; P.O., 50 mg/kg, 135 min post-administration): 137% of vehicle
Withdrawal latency (% of vehicle) (Male CD-1 mice; P.O., 50 mg/kg, 285 min post-administration): 127% of vehicle
Withdrawal latency (% of vehicle) (Male CD-1 mice; P.O., 50 mg/kg, 345 min post-administration): 124% of vehicle
Withdrawal latency (% of vehicle) (Male CD-1 mice; S.C., 25 mg/kg, 45 min post-injection): 147% of vehicle
Withdrawal latency (% of vehicle) (Male CD-1 mice; S.C., 25 mg/kg, 75 min post-injection): 143% of vehicle
Withdrawal latency (% of vehicle) (Male CD-1 mice; S.C., 25 mg/kg, 105 min post-injection): 165% of vehicle
Withdrawal latency (% of vehicle) (Male CD-1 mice; S.C., 25 mg/kg, 135 min post-injection): 169% of vehicle
Withdrawal latency (% of vehicle) (Male CD-1 mice; S.C., 25 mg/kg, 285 min post-injection): 141% of vehicle
Withdrawal latency (% of vehicle) (Male CD-1 mice; S.C., 25 mg/kg, 345 min post-injection): 130% of vehicle
Withdrawal latency (% of vehicle) (Male CD-1 mice; S.C., 150 mg/kg, 45 min post-injection): 194% of vehicle
Withdrawal latency (% of vehicle) (Male CD-1 mice; S.C., 150 mg/kg, 75 min post-injection): 217% of vehicle
Withdrawal latency (% of vehicle) (Male CD-1 mice; S.C., 150 mg/kg, 105 min post-injection): 186% of vehicle
Withdrawal latency (% of vehicle) (Male CD-1 mice; S.C., 150 mg/kg, 135 min post-injection): 175% of vehicle
Withdrawal latency (% of vehicle) (Male CD-1 mice; S.C., 150 mg/kg, 285 min post-injection): 184% of vehicle
Withdrawal latency (% of vehicle) (Male CD-1 mice; S.C., 150 mg/kg, 345 min post-injection): 175% of vehicle
increase in withdrawal latency (Male CD-1 mice; s.c., 150 mg/kg, 5-6 hours post injection): around 80%
potency ranking in the assay (Male CD-1 mice; tail flick): most potent
size of analgesic effect, ranking among tested compounds (Male CD-1 mice; tail flick, Table 1): largest analgesic effects
withdrawal threshold (mechanical allodynia, von Frey) (Sprague-Dawley (SD) rats): increased withdrawal threshold
